Source: ChEMBL document CHEMBL5244206, “Recent encounters with atropisomerism in drug discovery” (Bioorg Med Chem Lett, 2018)

Molecular target: ALK tyrosine kinase receptor (Homo sapiens, UniProt Q9UM73, L1196M)
Assay: Binding affinity to human recombinant ALK L1196M mutant (1093 to 1411 residues) assessed as inhibition constant using 5'FAM-KKSRGDYMTMQIG-CONH2 peptide as substrate in presence of ATP by micro-fluidic mobility shift assay

Chain of ALK tyrosine kinase receptor (Q9UM73 19-1620 L1196M limits assumed): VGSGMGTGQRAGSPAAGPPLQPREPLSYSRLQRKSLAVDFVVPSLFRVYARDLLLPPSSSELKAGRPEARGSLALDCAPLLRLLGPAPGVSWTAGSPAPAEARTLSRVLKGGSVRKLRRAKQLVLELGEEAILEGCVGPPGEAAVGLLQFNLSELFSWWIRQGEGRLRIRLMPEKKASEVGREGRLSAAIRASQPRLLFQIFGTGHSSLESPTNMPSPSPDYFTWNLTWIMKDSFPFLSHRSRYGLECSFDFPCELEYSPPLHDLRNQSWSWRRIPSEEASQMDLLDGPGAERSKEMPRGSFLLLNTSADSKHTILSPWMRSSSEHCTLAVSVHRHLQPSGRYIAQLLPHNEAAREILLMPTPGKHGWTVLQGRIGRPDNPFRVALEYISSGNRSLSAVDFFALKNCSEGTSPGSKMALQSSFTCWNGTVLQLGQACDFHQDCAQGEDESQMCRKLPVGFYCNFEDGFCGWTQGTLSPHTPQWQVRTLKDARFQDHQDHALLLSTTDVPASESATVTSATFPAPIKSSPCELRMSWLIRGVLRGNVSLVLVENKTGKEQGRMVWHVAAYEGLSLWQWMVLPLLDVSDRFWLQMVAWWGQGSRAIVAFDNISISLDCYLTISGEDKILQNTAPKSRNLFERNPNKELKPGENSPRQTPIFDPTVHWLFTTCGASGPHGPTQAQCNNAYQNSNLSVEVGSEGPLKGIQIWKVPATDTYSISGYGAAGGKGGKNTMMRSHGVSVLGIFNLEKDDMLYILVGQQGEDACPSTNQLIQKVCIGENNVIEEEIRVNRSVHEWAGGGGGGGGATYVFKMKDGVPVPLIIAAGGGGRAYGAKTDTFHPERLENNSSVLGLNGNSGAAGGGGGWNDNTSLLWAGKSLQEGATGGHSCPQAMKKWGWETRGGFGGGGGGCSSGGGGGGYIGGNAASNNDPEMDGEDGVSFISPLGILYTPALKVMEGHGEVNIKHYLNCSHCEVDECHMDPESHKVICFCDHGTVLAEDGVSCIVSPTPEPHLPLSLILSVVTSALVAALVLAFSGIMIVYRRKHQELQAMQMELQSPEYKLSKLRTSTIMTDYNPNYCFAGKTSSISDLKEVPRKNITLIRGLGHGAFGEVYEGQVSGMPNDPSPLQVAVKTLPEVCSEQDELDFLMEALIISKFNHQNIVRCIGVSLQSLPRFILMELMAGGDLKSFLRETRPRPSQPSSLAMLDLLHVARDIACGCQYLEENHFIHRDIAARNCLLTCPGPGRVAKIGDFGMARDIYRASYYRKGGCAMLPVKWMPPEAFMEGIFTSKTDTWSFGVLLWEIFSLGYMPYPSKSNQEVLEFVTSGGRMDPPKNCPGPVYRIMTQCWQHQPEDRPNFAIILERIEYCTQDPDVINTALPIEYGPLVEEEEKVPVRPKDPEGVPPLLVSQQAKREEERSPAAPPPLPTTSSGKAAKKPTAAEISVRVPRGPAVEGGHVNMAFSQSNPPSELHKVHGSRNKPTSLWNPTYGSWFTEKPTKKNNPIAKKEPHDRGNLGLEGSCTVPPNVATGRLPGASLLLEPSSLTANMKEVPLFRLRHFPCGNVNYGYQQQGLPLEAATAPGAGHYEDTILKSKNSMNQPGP

SMILES: CN1Cc2nn(C)c(C#N)c2-c2cnc(N)c(c2)OCc2cc(F)ccc2C1=O
- Ki: 273 nM
